Measurements taken from article PMC4648050, “Discovery of Inhibitors of Trypanosoma brucei by Phenotypic Screening of a Focused Protein Kinase Library” (Chemmedchem, 2015).
≈ marks a conversion by molar mass, not a printed value. Entries after “also recorded” stand apart in the source; their conditions may differ. Where two headings read alike, the source gives them in different places.

How the values were obtained:
T. b. brucei = experiment: Trypanosome proliferation assay; assay type: cell-based, Trypanosoma brucei brucei; conditions: for EC50: Trypanosoma brucei, read-out: EC50 T. b. brucei; for fold loss of activity (T. b. brucei EC50): relative to the comparator compound
Method: (§1) Trypanosome and MRC5 proliferation assay: Measurement of inhibition of the proliferation of MRC5 cells (human lung fibroblasts) and T. brucei bloodstream-stage cells was performed using a modification of a cell viability assay previously described.[35, 36] Compounds ([…] to 0.5 nM) were incubated with 2×10^3 cells per well in 0.2 mL of the appropriate culture medium (MEM with 10 % foetal bovine serum for MRC5 cells) in clear 96-well plates. Plates were incubated at 37 °C in the presence of 5 % CO2 for 69 h. Resazurin was then added to a final concentration of 50 μM, and plates were incubated as above for a further 4 h before being read on a BioTek Flx800 fluorescence plate reader.

[1] = tested on: MRC5 cells (human lung fibroblasts); experiment: MRC5 proliferation assay; assay type: cell-based; conditions: geometric mean of two or more determinations
Method: as §1

[2] = Plasma protein binding (equilibrium dialysis); assay type: in vitro ADME; conditions: female, CD1; mouse plasma, equilibrium dialysis; read-out: PPB
Method: Plasma protein binding experiments: In brief, a 96-well equilibrium dialysis apparatus was used to determine the free fraction in plasma for each compound (HT Dialysis LLC, Gales Ferry, CT, USA). Membranes (12-14 kDa cutoff) were conditioned in deionised H2O for 60 min, followed by conditioning in 80:20 deionised H2O/EtOH for 20 min, and then rinsed in isotonic buffer before use. Female CD1 mouse plasma was removed from the freezer and allowed to thaw on the day of experiment. Thawed plasma was then centrifuged (Allegra […], Beckman Coulter, USA), spiked with test compound (10 μg g^-1), and 150 μL aliquots (n=6 replicate determinations) loaded into the 96-well equilibrium dialysis plate. Dialysis against isotonic buffer (150 μL) was carried out for 5 h in a temperature-controlled incubator at ∼37 °C (Barworld Scientific Ltd., UK) using an orbital microplate shaker at 125 rpm (Barworld Scientific). At the end of the incubation period, aliquots of plasma or buffer were transferred to micronic tubes (Micronic B.V., the Netherlands), and the composition in each tube was balanced with control fluid such that the volume of buffer to plasma is the same. Sample extraction was performed by the addition of 400 μL MeCN containing an appropriate internal standard. Samples were allowed to mix for 1 min and then centrifuged at 3000 rpm in 96-well blocks for 15 min (Allegra […], Beckman Coulter, USA). All samples were analysed by UPLC-MS/MS on a Quattro Premier XE Mass Spectrometer (Waters Corp.). The unbound fraction was determined as the ratio of the peak area in buffer to that in plasma.

[3] = tested on: T. brucei bloodstream-stage cells; experiment: Static–cidal (SC) assay; assay type: cell-based, Trypanosoma brucei brucei; conditions: for EC50 / MCC: Trypanosoma brucei; for EC50: 48 h; for MCC: read-out: MCC (minimal cidal concentration); for Mode: static/cidal classification from growth curves; for mode of antiparasitic effect (in words): text and figure legend, at concentrations tested; for plateau of dose–response curve (inhibition): static–cidal dose–response curve
Method: Determination of cidality against T. brucei bloodstream-stage cells was performed using a static–cidal (SC) assay as previously reported.[26] Briefly, bloodstream-form trypanosomes were seeded into 384-well plates at 4×10^5 mL^−1 (50 μL per well), followed by immediate addition of resazurin (50 μM final) to one of the plates, and all plates were incubated at 37 °C, 5 % CO2. After 4 h the t0 plate was read using a PerkinElmer Victor 3 plate reader (λex=528 nm, λem=590 nm). The second plate was processed in the same manner 20 h later, and at 44 h the last plate was processed. The minimum cidal concentration (MCC) is defined as the lowest concentration of drug that results in a decrease of resorufin signal over time. For dose–response curves from this assay either a monophasic or a biphasic equation was used, depending on which one provided the best fit. For monophasic fits, the following four-parametric equation [Eq. (1)] was used:
in which A=percent inhibition at bottom, B=percent inhibition at top, C=EC50, D=slope, x=inhibitor concentration, and y=percent inhibition. Equation (2) was used for biphasic fits:
for which A=percent inhibition at mid-plateau, B=slope, C=log[SC EC50(1)], D=log[SC EC50(2)]. Thus SC EC50(1) is the EC50 for the first phase of the curve, and SC EC50(2) is that for the second phase. Inhibition at the bottom of the curve is fixed at 0 % and at the top, 100 %.

[4] = Kinetic aqueous solubility (laser nephelometry); assay type: physicochemical; conditions: Milli-Q water with 2.5% DMSO, kinetic from dmso stock, range 250–12 μM, read-out: Aq. Sol. (aqueous kinetic solubility)
Method: Solubility experiments: The kinetic aqueous solubility of the test compounds was measured using laser nephelometry. Compounds were subject to serial dilution from 10 mM to 0.5 mM in DMSO. An aliquot was then mixed with Milli-Q H2O to obtain an aqueous dilution plate with a final concentration range of 250–12 μM, with a final DMSO concentration of 2.5 %. Triplicate aliquots were transferred to a flat-bottomed polystyrene plate which was immediately read on the NEPHELOstar (BMG Lab Technologies). The amount of laser scatter caused by insoluble particulates (relative nephelometry units, RNU) was plotted against compound concentration using a segmental regression fit, with the point of inflection being quoted as the compounds′ aqueous solubility (in μM).

[5] = geometric mean of two or more determinations, standard cell viability (resazurin) assay
[6] = static cidal EC50, first site/phase, read-out: SC EC50(1)
[7] = static cidal EC50, second site/phase, read-out: SC EC50(2)
[8] = static–cidal assay in triplicate

SMILES | EC50 (T. b. brucei; [5]) | EC50 [1] | fold loss of activity (T. b. brucei EC50) (T. b. brucei) | other results
COCCCn1c(=O)[nH]c2ncc(-c3ccc(OC(F)(F)F)cc3)nc21 [Compound 2] | 500 nM | 15 µM | – | –
C[C@H](c1ccccc1)n1c(=O)[nH]c2ncc(-c3ccc(O)cc3)nc21 [Compound 3] | 900 nM | – | – | –
C[C@@H](c1ccccc1)n1c(=O)[nH]c2ncc(-c3ccc(F)cc3)nc21 [Compound 8] | 90 nM | > 50 µM | – | –
O=c1[nH]c2ncc(-c3ccc(F)cc3)nc2n1Cc1ccccc1 [Compound 9, 1-Benzyl-6-(4-fluorophenyl)-1H-imidazo[4,5-b]pyrazin-2(3H)-one] | 500 nM | > 50 µM | – | –
Cn1c(=O)[nH]c2ncc(-c3ccc(F)cc3)nc21 [Compound 11] | 40000 nM | > 50 µM | 100 fold | –
C[C@H](c1ccccc1)n1c(=O)[nH]c2ncc(-c3ccc(OC(F)(F)F)cc3)nc21 [Compound 15] | 1000 nM | 39 µM | 10 fold | –
C[C@H](c1ccccc1)n1c(=O)[nH]c2nccnc21 [Compound 16] | 36000 nM | > 50 µM | > 300 fold | –
C[C@H](c1ccccc1)n1c(=O)[nH]c2ncc(-c3cccc(F)c3)nc21 [Compound 17] | 300 nM | 44 µM | – | –
COc1ccc(-c2cnc3[nH]c(=O)n(C4CCCCC4)c3n2)cc1 [Compound 20] | 330 nM | 24 µM | – | fraction unbound at 5 h, 10 μg g^−1 [2]: 0.007
O=c1[nH]c2ncc(-c3ccc(CO)cc3)nc2n1C1CCCCC1 [Compound 21] | 400 nM | > 50 µM | 10 fold | fraction unbound at 5 h, 10 μg g^−1 [2]: 0.047
CNC(=O)c1ccc(-c2cnc3[nH]c(=O)n(C4CCCCC4)c3n2)cc1 [Compound 22] | 1700 nM | > 50 µM | 30 fold | –
CN(C)Cc1ccc(-c2cnc3[nH]c(=O)n(C4CCCCC4)c3n2)cc1 [Compound 23] | 5000 nM | > 50 µM | 50 fold | –
O=c1[nH]c2ncc(-c3cccc(CO)c3)nc2n1C1CCCCC1 [Compound 24] | 30 nM | > 50 µM | – | EC50 [3, 6]: 70 nM; EC50 [3, 7]: 30000 nM; MCC [3, 8]: > 50000 nM; Mode [3]: S; mode of antiparasitic effect (in words) [3]: growth-slowing or static behaviour; also recorded: static at concentration tested; solubility kinetic [4]: > 250 µM
CC(=O)Nc1cccc(-c2cnc3[nH]c(=O)n(C4CCCCC4)c3n2)c1 [Compound 25] | 900 nM | > 50 µM | – | –
O=c1[nH]c2ncc(-c3ccccc3F)nc2n1C1CCCCC1 [Compound 26] | 60 nM | > 50 µM | – | fraction unbound at 5 h, 10 μg g^−1 [2]: 0.007; EC50 [3, 6]: 90 nM; MCC [3, 8]: > 50000 nM; mode of antiparasitic effect (in words) [3]: growth-slowing or static behaviour; solubility kinetic [4]: 20 µM (≈ 6.25 µg/mL)
COc1ccccc1-c1cnc2[nH]c(=O)n(C3CCCCC3)c2n1 [Compound 27] | 900 nM | > 50 µM | – | –
O=c1[nH]c2ncc(-c3ccncc3)nc2n1C1CCCCC1 [Compound 29] | 70 nM | > 50 µM | – | –
O=c1[nH]c2ncc(N3CCOCC3)nc2n1C1CCCCC1 [Compound 32] | 50 nM | > 50 µM | – | solubility kinetic [4]: 220 µM (≈ 66.7 µg/mL)

SMILES | EC50 (T. b. brucei; [5]) | EC50 [1] | fold loss of activity (T. b. brucei EC50) (T. b. brucei) | other results
CN1CCN(c2cnc3[nH]c(=O)n(C4CCCCC4)c3n2)CC1 [Compound 33] | 2000 nM | > 50 µM | 50 fold | –
CC(C)n1c(=O)[nH]c2ncc(-c3ccccc3)nc21 [Compound 36] | 300 nM | > 50 µM | 10 fold | –
O=c1[nH]c2ncc(-c3ccccc3)nc2n1-c1ccccc1 [Compound 37] | > 50000 nM | > 50 µM | – | –
COCC(C)n1c(=O)[nH]c2ncc(-c3ccccc3)nc21 (centres unmarked) [Compound 39, 1-(1-Methoxypropan-2-yl)-6-phenyl-1H-imidazo[4,5-b]pyrazin-2(3H)-one] | 200 nM | > 50 µM | – | EC50 [3, 6]: 410 nM; EC50 [3, 7]: 32000 nM; MCC [3, 8]: > 50000 nM; Mode [3]: S; mode of antiparasitic effect (in words) [3]: growth-slowing or static behaviour
CCC(CO)n1c(=O)[nH]c2ncc(-c3ccccc3)nc21 (centres unmarked) [Compound 40] | 500 nM | > 50 µM | ~10 fold | –
CN(C)CCn1c(=O)[nH]c2ncc(-c3ccccc3)nc21 [Compound 41] | 13000 nM | > 50 µM | – | –
CN1CCC(n2c(=O)[nH]c3ncc(-c4ccccc4)nc32)CC1 [Compound 42] | 2000 nM | > 50 µM | – | –
C[C@H](c1ccccc1)n1c(=O)[nH]c2ccc(-c3ccc(F)cc3)cc21 [Compound 47] | 10000 nM | – | 100 fold | –
C[C@H](c1ccccc1)n1c(=O)n(C)c2ncc(-c3ccc(F)cc3)nc21 [Compound 48] | 8000 nM | – | 100 fold | –
CC(C)(c1ccccc1)n1c(=O)[nH]c2ncc(-c3cccnc3)cc21 [Compound 52] | 790 nM | 23 µM | – | –
O=c1[nH]c2ncc(-c3ccccc3CO)cc2n1C1CCCCC1 [Compound 53] | 670 nM | > 50 µM | ~13 fold | –
CC(C)(c1ccccc1)n1c(=O)[nH]c2ncc(-c3ccccc3CO)cc21 [Compound 54] | 15000 nM | > 50 µM | – | –
O=c1[nH]c2ncc(N3CCOCC3)cc2n1C1CCCCC1 [Compound 57] | 330 nM | > 50 µM | ~7 fold | –
OCc1ccccc1-c1cnc2[nH]nc(C3CCCCC3)c2c1 [Compound 61] | 1300 nM | > 50 µM | – | –
COCc1ccccc1-c1cnc2[nH]nc(C3CCCCC3)c2c1 [Compound 62] | 2600 nM | > 50 µM | – | –
Nc1nc(N)nc(Nc2ccc([As]3SCC(CO)S3)cc2)n1 (centres unmarked) [melarsoprol, reference compound] | – | – | – | EC50 (T. b. brucei): 9 nM; EC50 ([3]; read-out: SC EC50(1)): 31 nM; MCC [3]: 100 nM; plateau of dose–response curve (inhibition) [3]: 100 % inhibition
N=C(N)c1ccc(OCCCCCOc2ccc(C(=N)N)cc2)cc1 [pentamidine, reference compound] | 4 nM | – | – | EC50 [3, 6]: 19 nM; MCC [3, 8]: 100 nM; plateau of dose–response curve (inhibition) [3]: 100 % inhibition; mode of antiparasitic effect (in words) [3]: cidal
